How the values were obtained:
VEGF8-121 = target: T1, VEGF8-121 (Homo sapiens, UniProt P15692); assay: Inhibition of labeled VEGF8-121 binding to its receptors; conditions: FIG. 9
T1 construct: made in house; host or cells: E. coli BL21(DE3)pLysS, inclusion bodies
T1 sequence (P15692 34-147 isoform P15692-9): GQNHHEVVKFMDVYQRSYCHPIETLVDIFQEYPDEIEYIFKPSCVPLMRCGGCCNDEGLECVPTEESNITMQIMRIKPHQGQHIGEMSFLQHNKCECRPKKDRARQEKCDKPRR
From the text: (§1) In order to verify this postulation, Sequence 1 (RRKRRR) was examined for the common binding domain on VEGF because it inhibited the binding of VEGF to its receptors at the highest efficiency. First, appropriate primers were synthesized and used to amplify various cDNAs coding for VEGF165, VEGF121, VEFG8-121, VEGF109, and VEGF8-109 while a human liver cDNA library (Clontech) served as a template. After being inserted to plasmid pRSET A (Invitrogen), the cDNAs were sequenced. The resulting five pRSET A vectors, each having one of the five cDNAs, were introduced into an expression strain (BL21(DE3)pLysS) containing T7 RNA polymerase. […] The purified VEGFs were quantified by use of a protein assay reagent (Bio-Rad) and all found to bind to VEGF receptors and exert growth hormone activity on HUVEC. […] For use, each labeled protein was quantified by ELISA (enzyme-linked immunosorbent assay) using a mouse monoclonal anti-VEGF antibody (R&D systems).
(§2) Each peptide was examined for antagonistic activity against VEGF in the same manner as in Example 2. Referring to FIG. 9, the radioactivity measured from ^125I-labeled VEGF associated with fixed Sequence 1 (RRKRRR) (SEQ ID NO: 1) is plotted in the absence of competitors and in the presence of competitors for various VEGF isomers. […]

VEGF109 = target: T2, VEGF109 (Homo sapiens, UniProt P15692); assay: Inhibition of labeled VEGF109 binding to its receptors; conditions: FIG. 9
T2 construct: made in house; host or cells: E. coli BL21(DE3)pLysS, inclusion bodies
T2 sequence (P15692 27-135 isoform P15692-4): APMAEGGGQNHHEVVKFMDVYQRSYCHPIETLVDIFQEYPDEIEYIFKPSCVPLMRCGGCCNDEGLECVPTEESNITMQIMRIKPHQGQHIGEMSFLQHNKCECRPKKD
From the text: as §1, §2

[1] = tested on: HM7 (human colon carcinoma cell line); assay: Liver metastasis of HM7 cells transplanted into the spleen of nude mice; assay type: in vivo; conditions: control group PBS only
From the text: In order to conduct an experiment concerning the metastasis of cancer cells to the liver, cancerous cells were transplanted into the spleen. In this regard, after being anesthetized with diethyl ether, 4-week-old male mice (athymic nude mice, BALB/c/nu/nu, Charles River, Japan) underwent flank incision. […] Four weeks after the injection, the liver was excised from each mouse and measured for weight and the size and number of metastatic nodules formed. Each test group was composed of 6-7 mice. In a student's t-test, a p value less than 0.05 was regarded as being statistically significant. In the test using tetrazolium dye (cell titer 96 Non-radioactive Proliferation Assay Kit, Promega), each peptide was evaluated to have no influence on the growth of the cancer cells (5×10^3 cells/well), so that the possibility that the toxicity of the peptide themselves might inhibit the growth and metastasis of cancer cells could be excluded.

**Q.** Which results are given for “H-RRKRRR-NH2 [compound 8, NH2-Arg-Arg-Lys-Arg-Arg-Arg-CONH2]”?
**A.** inhibition of binding of VEGF8-121 to its receptors (VEGF8-121): not inhibited; inhibition of binding of VEGF109 to its receptors (VEGF109): not inhibited; weight of the liver, % of the control group [1]: 33%; number of metastatic nodules, % of the control group ([1]; liver): 16%

Source: patent US7291601B1, “Arginine-rich anti-vascular endothelial growth factor peptides that inhibit growth and metastasis of human tumor cells by blocking angiogenesis” (Korea Greencross Corp., priority 1999, dated 2007)
